{
  "source": "ChEMBL document CHEMBL1165855",
  "about": "“Guaiane sesquiterpenes from seaweed Ulva fasciata Delile and their antibacterial properties” (2010)",
  "data": [
    {"tested_on": "Vibrio vulnificus", "assay": "Antibacterial activity against Vibrio vulnificus MTCC 1145 after 24 hrs by broth microdilution assay", "assay_type": "functional", "conditions": "MTCC 1145, 24 h", "units": {"MIC": "µg/mL"}, "values": [
      {"smiles": "CC[C@H]1CCC[C@@](C)(COC(C)=O)[C@H]2C=C[C@H](C)[C@@H]12", "MIC": 25},
      {"smiles": "CC[C@H]1CCC[C@@](C)(CO)[C@H]2C=C[C@H](C)[C@@H]12", "MIC": 40},
      {"smiles": "CC(C)[C@H]1CCC[C@@](C)(O)[C@H]2C=C[C@H](C)[C@@H]12", "MIC": 125}
    ]},
    {"tested_on": "Vibrio parahaemolyticus", "assay": "Antibacterial activity against Vibrio parahaemolyticus ATCC 17809 at 50 ug/ml after 24 hrs by disc-diffusion assay", "assay_type": "functional", "conditions": "ATCC 17809, 24 h, read-out: DIZ", "units": {"zone of inhibition at 50 µg/mL": "mm"}, "values": [
      {"smiles": "CC[C@H]1CCC[C@@](C)(COC(C)=O)[C@H]2C=C[C@H](C)[C@@H]12", "zone of inhibition at 50 µg/mL": 15.3},
      {"smiles": "CC[C@H]1CCC[C@@](C)(CO)[C@H]2C=C[C@H](C)[C@@H]12", "zone of inhibition at 50 µg/mL": 12.7},
      {"smiles": "CC(C)[C@H]1CCC[C@@](C)(O)[C@H]2C=C[C@H](C)[C@@H]12", "zone of inhibition at 50 µg/mL": 6.83}
    ]},
    {"tested_on": "Vibrio parahaemolyticus", "assay": "Antibacterial activity against Vibrio parahaemolyticus ATCC 17809 at 100 ug/ml after 24 hrs by disc-diffusion assay", "assay_type": "functional", "conditions": "ATCC 17809, 24 h, read-out: DIZ", "units": {"zone of inhibition at 100 µg/mL": "mm"}, "values": [
      {"smiles": "CC[C@H]1CCC[C@@](C)(COC(C)=O)[C@H]2C=C[C@H](C)[C@@H]12", "zone of inhibition at 100 µg/mL": 15.8},
      {"smiles": "CC[C@H]1CCC[C@@](C)(CO)[C@H]2C=C[C@H](C)[C@@H]12", "zone of inhibition at 100 µg/mL": 12.9},
      {"smiles": "CC(C)[C@H]1CCC[C@@](C)(O)[C@H]2C=C[C@H](C)[C@@H]12", "zone of inhibition at 100 µg/mL": 6.92}
    ]},
    {"tested_on": "Vibrio vulnificus", "assay": "Antibacterial activity against Vibrio vulnificus MTCC 1145 at 50 ug/ml after 24 hrs by disc-diffusion assay", "assay_type": "functional", "conditions": "MTCC 1145, 24 h, read-out: DIZ", "units": {"zone of inhibition at 50 µg/mL": "mm"}, "values": [
      {"smiles": "CC[C@H]1CCC[C@@](C)(COC(C)=O)[C@H]2C=C[C@H](C)[C@@H]12", "zone of inhibition at 50 µg/mL": 14.1},
      {"smiles": "CC[C@H]1CCC[C@@](C)(CO)[C@H]2C=C[C@H](C)[C@@H]12", "zone of inhibition at 50 µg/mL": 11.7},
      {"smiles": "CC(C)[C@H]1CCC[C@@](C)(O)[C@H]2C=C[C@H](C)[C@@H]12", "zone of inhibition at 50 µg/mL": 7.15}
    ]},
    {"tested_on": "Vibrio parahaemolyticus", "assay": "Antibacterial activity against Vibrio parahaemolyticus ATCC 17809 after 24 hrs by broth microdilution assay", "assay_type": "functional", "conditions": "ATCC 17809, 24 h", "units": {"MIC": "µg/mL"}, "values": [
      {"smiles": "CC[C@H]1CCC[C@@](C)(COC(C)=O)[C@H]2C=C[C@H](C)[C@@H]12", "MIC": 25},
      {"smiles": "CC[C@H]1CCC[C@@](C)(CO)[C@H]2C=C[C@H](C)[C@@H]12", "MIC": 35},
      {"smiles": "CC(C)[C@H]1CCC[C@@](C)(O)[C@H]2C=C[C@H](C)[C@@H]12", "MIC": 110}
    ]},
    {"tested_on": "Vibrio parahaemolyticus", "assay": "Antibacterial activity against Vibrio parahaemolyticus ATCC 17809 at 150 ug/ml after 24 hrs by disc-diffusion assay", "assay_type": "functional", "conditions": "ATCC 17809, 24 h, read-out: DIZ", "units": {"zone of inhibition at 150 µg/mL": "mm"}, "values": [
      {"smiles": "CC[C@H]1CCC[C@@](C)(COC(C)=O)[C@H]2C=C[C@H](C)[C@@H]12", "zone of inhibition at 150 µg/mL": 16.6},
      {"smiles": "CC[C@H]1CCC[C@@](C)(CO)[C@H]2C=C[C@H](C)[C@@H]12", "zone of inhibition at 150 µg/mL": 13.2},
      {"smiles": "CC(C)[C@H]1CCC[C@@](C)(O)[C@H]2C=C[C@H](C)[C@@H]12", "zone of inhibition at 150 µg/mL": 7.28}
    ]},
    {"tested_on": "Vibrio harveyi", "assay": "Antibacterial activity against Vibrio harveyi MTCC 3438 at 50 ug/ml after 24 hrs by disc-diffusion assay", "assay_type": "functional", "conditions": "MTCC 3438, 24 h, read-out: DIZ", "units": {"zone of inhibition at 50 µg/mL": "mm"}, "values": [
      {"smiles": "CC[C@H]1CCC[C@@](C)(COC(C)=O)[C@H]2C=C[C@H](C)[C@@H]12", "zone of inhibition at 50 µg/mL": 11.7},
      {"smiles": "CC[C@H]1CCC[C@@](C)(CO)[C@H]2C=C[C@H](C)[C@@H]12", "zone of inhibition at 50 µg/mL": 10.6},
      {"smiles": "CC(C)[C@H]1CCC[C@@](C)(O)[C@H]2C=C[C@H](C)[C@@H]12", "zone of inhibition at 50 µg/mL": 6.54}
    ]},
    {"tested_on": "Vibrio harveyi", "assay": "Antibacterial activity against Vibrio harveyi MTCC 3438 at 150 ug/ml after 24 hrs by disc-diffusion assay", "assay_type": "functional", "conditions": "MTCC 3438, 24 h, read-out: DIZ", "units": {"zone of inhibition at 150 µg/mL": "mm"}, "values": [
      {"smiles": "CC[C@H]1CCC[C@@](C)(COC(C)=O)[C@H]2C=C[C@H](C)[C@@H]12", "zone of inhibition at 150 µg/mL": 12.6},
      {"smiles": "CC[C@H]1CCC[C@@](C)(CO)[C@H]2C=C[C@H](C)[C@@H]12", "zone of inhibition at 150 µg/mL": 12.9},
      {"smiles": "CC(C)[C@H]1CCC[C@@](C)(O)[C@H]2C=C[C@H](C)[C@@H]12", "zone of inhibition at 150 µg/mL": 6.6}
    ]},
    {"tested_on": "Vibrio harveyi", "assay": "Antibacterial activity against Vibrio harveyi MTCC 3438 after 24 hrs by broth microdilution assay", "assay_type": "functional", "conditions": "MTCC 3438, 24 h", "units": {"MIC": "µg/mL"}, "values": [
      {"smiles": "CC[C@H]1CCC[C@@](C)(COC(C)=O)[C@H]2C=C[C@H](C)[C@@H]12", "MIC": 30},
      {"smiles": "CC[C@H]1CCC[C@@](C)(CO)[C@H]2C=C[C@H](C)[C@@H]12", "MIC": 50},
      {"smiles": "CC(C)[C@H]1CCC[C@@](C)(O)[C@H]2C=C[C@H](C)[C@@H]12", "MIC": 160}
    ]},
    {"tested_on": "Vibrio harveyi", "assay": "Antibacterial activity against Vibrio harveyi MTCC 3438 at 100 ug/ml after 24 hrs by disc-diffusion assay", "assay_type": "functional", "conditions": "MTCC 3438, 24 h, read-out: DIZ", "units": {"zone of inhibition at 100 µg/mL": "mm"}, "values": [
      {"smiles": "CC[C@H]1CCC[C@@](C)(COC(C)=O)[C@H]2C=C[C@H](C)[C@@H]12", "zone of inhibition at 100 µg/mL": 12.3},
      {"smiles": "CC[C@H]1CCC[C@@](C)(CO)[C@H]2C=C[C@H](C)[C@@H]12", "zone of inhibition at 100 µg/mL": 11.7},
      {"smiles": "CC(C)[C@H]1CCC[C@@](C)(O)[C@H]2C=C[C@H](C)[C@@H]12", "zone of inhibition at 100 µg/mL": 6.58}
    ]},
    {"tested_on": "Vibrio vulnificus", "assay": "Antibacterial activity against Vibrio vulnificus MTCC 1145 at 100 ug/ml after 24 hrs by disc-diffusion assay", "assay_type": "functional", "conditions": "MTCC 1145, 24 h, read-out: DIZ", "units": {"zone of inhibition at 100 µg/mL": "mm"}, "values": [
      {"smiles": "CC[C@H]1CCC[C@@](C)(COC(C)=O)[C@H]2C=C[C@H](C)[C@@H]12", "zone of inhibition at 100 µg/mL": 14.9},
      {"smiles": "CC[C@H]1CCC[C@@](C)(CO)[C@H]2C=C[C@H](C)[C@@H]12", "zone of inhibition at 100 µg/mL": 12},
      {"smiles": "CC(C)[C@H]1CCC[C@@](C)(O)[C@H]2C=C[C@H](C)[C@@H]12", "zone of inhibition at 100 µg/mL": 7.3}
    ]},
    {"tested_on": "Vibrio vulnificus", "assay": "Antibacterial activity against Vibrio vulnificus MTCC 1145 at 150 ug/ml after 24 hrs by disc-diffusion assay", "assay_type": "functional", "conditions": "MTCC 1145, 24 h, read-out: DIZ", "units": {"zone of inhibition at 150 µg/mL": "mm"}, "values": [
      {"smiles": "CC[C@H]1CCC[C@@](C)(COC(C)=O)[C@H]2C=C[C@H](C)[C@@H]12", "zone of inhibition at 150 µg/mL": 15.1},
      {"smiles": "CC[C@H]1CCC[C@@](C)(CO)[C@H]2C=C[C@H](C)[C@@H]12", "zone of inhibition at 150 µg/mL": 12.4},
      {"smiles": "CC(C)[C@H]1CCC[C@@](C)(O)[C@H]2C=C[C@H](C)[C@@H]12", "zone of inhibition at 150 µg/mL": 7.85}
    ]}
  ]
}
